Measurements from patent US12357654B2, “Application of glucan in preparation of drug” (Qingdao Conson Pharmaceutical Co., Ltd., priority 2019, dated 2025).

Assays:
[1] = test system: mouse melanoma cell line B16; experiment: B16 syngeneic tumor model, β-1,3/1,6-glucan with anti-PD-1 antibody: tumor volume, tumor weight, body weight; format: in vivo
Experimental: (§1) A cell suspension of 3×10^5 mouse melanoma cell line B16 (presented by PerkinElmer) was injected subcutaneously into C57BL/6J mice (female, 6-8 weeks old, purchased from Jinan Pengyue Experimental Animal Company). The administration experiments were performed about 4 days after implantation when B16 tumors have grown to be palpable. Mice were divided into four groups and treated with vehicle or β-1,3/1,6-glucan (4 mg/kg, i.v., twice a week) alone, or in combination with anti-PD-1 antibody (anti-mouse PD-1 antibody purchased from BioxCell, 200 μg per mouse, i.v., once a week). Tumor volumes were evaluated and tumor weights were recorded. After sacrifice of mice, blood and tumor samples were collected for flow cytometric analysis.
(§2) Combination treatment also upregulates pro-inflammatory monocyte-derived macrophages (CD11b+Ly6Chi, FIG. 1E) in the peripheral blood. […] In addition, it was detected that the combination application of β-1,3/1,6-glucan and PD-1 antibodies enhances the percentage of CD4 and CD8 T cells in the blood and tumor (FIG. 2). It was shown that β-1,3/1,6-glucan and anti-PD-1 antibodies synergistically increase tumor infiltration of pro-inflammatory macrophages, decrease the percentage of immunosuppressive TAM, and increase the ratio of acquired immune cells T and B cells, resulting in building up a more pro-inflammatory and anti-tumoral tumor microenvironment.

platelets = experiment: Platelet concentration by hematology analyzer, B16 model with anti-PD-1 antibody; format: in vivo, C57BL/6J mice; conditions: blood day 14, FIG. 3
leukocytes and platelets = experiment: Leukocytes and platelets by hematology analyzer, B16 model with carboplatin chemotherapy; format: in vivo, C57BL/6J mice; conditions: BG136 4 mg/kg tail vein with carboplatin 30 mg/kg i.p. twice a week; day 15; FIGS. 17-21
Experimental: (§3) A cell suspension of 3×10^5 mouse melanoma cell line B16 (presented by PerkinElmer) was injected subcutaneously into C57BL/6J mice (females, 6-8 weeks old, purchased from Jinan Panyue Experimental Animal Company) (Overwijk & Restifo, 2001). About 2 days after tumor implantation, carboplatin (30 mg/kg, twice a week) was injected intraperitoneally and BG136 (4 mg/kg) or lentinan LNT (2 mg/kg) was injected via the tail vein, and tumor volume were measured during administration, and on day 15, after animals were sacrificed, tumor weight was measured. Blood was taken from the heart after animals were sacrificed, placed in EDTA-anticoagulation tubes. After mixing, 50 μl of whole blood was taken and the immune cell concentration was measured by a hematology analyzer.

[2] = test system: lymphocytes in peripheral blood; experiment: Relative lymphocyte concentration in peripheral blood by FACS, B16 model with anti-PD-1 antibody; format: in vivo, C57BL/6J mice; conditions: 8 mg/kg β-1,3/1,6-glucan combined with PD-1 antibody, versus PD-1 antibody alone; FIG. 4
Experimental: as §1, with “Mice were divided into four groups and treated with vehicle or β-1,3/1,6-glucan (4 mg/kg, i.v., twice a week) alone, or in combination with anti-PD-1 antibody (anti-mouse PD-1 antibody purchased from BioxCell, 200 μg per mouse, i.v., once a week).” left out
The experimental method was the same as in Example 1. On day 14, blood was taken from the heart after animal sacrificed, and placed in EDTA-anticoagulation tubes. After mixing, 50 μl of whole blood was taken. 5 μl of GFP microspheres were added to each sample for erythrocyte lysis.
(§4) The single-cell suspensions were blocked with blocking buffer (20% FBS, 1:100 CD16/CD32 antibody and 1:100 rat IgG) for 20 min, and incubated and staining with the corresponding immune cell surface protein antibodies (CD4-BV510, CD8-PerCP-Cy5.5, CD19-APC, CD3-FITC) for 30 minutes at 4° C. Analysis of immune cell population ratios was performed by FACS Arial III (BD Biosciences). The specific procedure was delineating the cell population in the FSC/SSC quadrant, delineating the single cell population by FSC-H and FSC-A, and delineating the corresponding immune cells by immune cell surface markers, and calculating the relative immune cell concentration.

[3] = test system: mouse melanoma cell line B16; experiment: B16 syngeneic tumor model with carboplatin chemotherapy: tumor volume, tumor weight; format: in vivo, C57BL/6J mice; conditions: BG136 4 mg/kg tail vein with carboplatin 30 mg/kg i.p. twice a week; sacrificed day 15; FIGS. 17-21
Experimental: as §3

[4] = test system: mouse melanoma cell line B16; experiment: B16 syngeneic tumor model after local radiotherapy: tumor volume, tumor weight; format: in vivo, C57BL/6J mice; conditions: local radiotherapy 10 Gy day 5; glucan by tail vein once a week (day 6, day 14); sacrificed day 17; FIGS. 5-7
Experimental: (§5) A cell suspension of 3×10^5 mouse melanoma cell line B16 (presented by PerkinElmer) was injected subcutaneously into C57BL/6J mice (female, 6-8 weeks old, purchased from Jinan Pengyue Experimental Animal Company)(Overwijk & Restifo, 2001). About 5 days after tumor implantation, local radiotherapy (tumor injection area, 10 Gy) was applied. On day 6 and day 14, vehicle or β-1,3/1,6-glucan was administered (tail vein injection, once a week), during this period, tumor volume and mouse body weight were measured, and on day 17, after the animals were sacrificed, tumor weight was measured.

[5] = test system: immune cell subpopulations in blood and tumors; experiment: Flow cytometric analysis of immune cell subpopulations in blood and tumors, B16 model with anti-PD-1 antibody; format: in vivo, C57BL/6J mice
Experimental: as §1
Blood samples were collected by cardiac puncture, collected into EDTA-anticoagulation tubes. 50 μl of whole blood was taken for blood analysis, 50 μl of whole blood was taken for erythrocyte lysis (erythrocyte lysis buffer, Meltenyi), and the remaining whole blood was centrifuged at 3500 rpm for 7 min and the plasma was taken and stored at −80° C. Spleens and thymus were weighed for recording. Subcutaneous tumors of mice, about 0.2-0.5 g of tumors tissues, were taken, and single cell suspensions from the tumor samples were obtained by Mouse Tumor Dissociation Kit (Meltenyi). The blood cells after erythrocyte lysis as well as the dissociated tumor cell suspensions were subjected to subsequent processing, as well as flow cytometric detection
The single-cell suspensions were blocked with blocking buffer (20% FBS, 1:100 CD16/CD32 antibody and 1:100 rat IgG) for 20 min, and incubated and stained with the corresponding immune cell surface protein antibodies (CD11 b-PE, CD4-BV510, CD8-PerCP-Cy5.5, CD19-APC, CD3-FITC, CD206-PE-Cy7, Ly6C-APC) for 30 minutes at 4° C. Analysis of immune cell population ratios was performed by FACS
Arial III (BD Biosciences). The specific procedure was delineating the cell population in the FSC/SSC quadrant, delineating single cell population by FSC-H and FSC-A, and delineating corresponding immune cells by immune cell surface markers, and calculating the cell ratio or relative concentration.
as §2

leukocytes = experiment: Immune cell concentration by hematology analyzer, B16 model after radiotherapy; format: in vivo, C57BL/6J mice; conditions: local radiotherapy 10 Gy, glucan by tail vein once a week, FIGS. 8-15
Experimental: as §5, with “week),” for “week), during this period, tumor volume and mouse body weight were measured,”, “measured. Blood was taken from the heart after animal sacrificed, placed into EDTA-anticoagulation tubes. After mixing, 50 μl of whole blood was taken and the immune cell concentration was measured by a hematology analyzer.” for “measured.”

[6] = test system: CD4, CD8 and CD19 cells in peripheral blood; experiment: Relative CD4, CD8, CD19 cell concentration in peripheral blood by FACS, B16 model after radiotherapy; format: in vivo, C57BL/6J mice; conditions: 8 mg/kg β-1,3/1,6-glucan after radiotherapy, FIG. 16
Experimental: On day 14, blood was taken from the heart after animals were sacrificed, and placed in EDTA-anticoagulation tubes. After mixing, 50 μl of whole blood was taken. 5 μl of GFP microspheres were added to each sample for erythrocyte lysis.
as §4, with “CD19-APC)” for “CD19-APC, CD3-FITC)”, “Anal” for “Arial”

[7] = combination with PD-1 antibody, FIG. 2
[8] = combination with anti-PD-1 antibody, flow cytometry, FIG. 1D
[9] = combination with anti-PD-1 antibody, within the tumor, FIG. 1F

β-1,3/1,6-glucan
body weight and death of mice during treatment ([1]; combination of β-1,3/1,6-glucan 4 mg/kg and anti-PD-1 antibody 200 μg/mouse, FIG. 1C): no significant changes | tumor growth inhibition, combination versus single treatment ([1]; β-1,3/1,6-glucan 4 mg/kg i.v. twice a week combined with anti-PD-1 antibody 200 μg/mouse i.v. once a week, FIG. 1A, 1B): more effectively inhibits tumor growth than single treatment | anti-PD-1 antibody-induced tumor regression ([1]; β-1,3/1,6-glucan 4 mg/kg i.v. twice a week combined with anti-PD-1 antibody 200 μg/mouse i.v. once a week, sacrificed day 14, FIG. 1A, 1B): enhances anti-PD-1 antibody-induced tumor regression | platelet concentration (platelets; single agent alone): does not affect | platelet concentration, platelet-lowering side effect of PD-1 antibody (platelets; β-1,3/1,6-glucan in combination with PD-1 antibody): reverses the platelet-lowering side effect | decrease in platelets after carboplatin administration (leukocytes and platelets): reverses | immune response / immunosuppression after carboplatin administration (immune cell concentration) (leukocytes and platelets): reverses the immunosuppression | relative concentration of CD3 in blood [2]: further increase | relative concentration of CD4 in blood [2]: further increase | relative concentration of CD8 in blood [2]: further increase | relative concentration of CD19 in blood [2]: further increase | tumor suppressive effect in combination with carboplatin [3]: enhances the tumor suppressive effect of carboplatin | anti-tumor effect in combination with radiotherapy (tumor volume, tumor weight) [4]: enhances the anti-tumor effect of radiotherapy | percentage of immunosuppressive tumor-associated macrophages TAM (CD11b+CD206+) ([5]; combination treatment compared with anti-PD-1 antibody alone, within the tumor, FIG. 1G): reduced | percentage of CD4 T cells in the blood and tumor [5, 7]: enhances | percentage of CD8 T cells in the blood and tumor [5, 7]: enhances | pro-inflammatory monocyte-derived macrophages (CD11b+Ly6Chi) in the peripheral blood ([5]; combination with anti-PD-1 antibody, FIG. 1E): upregulates | percentage of CD11b+ cells in the blood [5, 8]: decreases | percentage of CD19+ cells in the blood [5, 8]: increases | tumor infiltration of myeloid cells (CD11b+) [5, 9]: more infiltration | tumor infiltration of pro-inflammatory macrophages (CD11b+Ly6Chi) [5, 9]: more infiltration | concentration of immune cells in blood after radiotherapy (leukocytes): increasing the concentration of immune cells | cell concentration of CD4 after radiotherapy [6]: increases | cell concentration of CD8 after radiotherapy [6]: increases | cell concentration of CD19 after radiotherapy [6]: increases
